Assays:
[1] = compound: COc1cc2ncnc(Nc3ccc(F)c(Cl)c3)c2cc1OCCCN1CCOCC1 [Gefitinib]; conditions: max 10 µM
Summary of the method: (§1)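 Following 24 hours at 37°C and 5% CO2, cancer cell lines in 1536-well plates with 7.5 μl DMEM/F12 or RPMI and 10% FBS were dosed for 72 hours, final DMSO typically being 0.2%. CellTiter-Glo 2.0 luminescence, scaled between blank-well and DMSO-well means, gave the viability readout. Dose responses were fitted to a two-parameter logistic curve with a non-linear mixed effects model, and the single-agent IC50 was derived from this fit.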

[2] = compound: CC(=O)c1c(C)c2cnc(Nc3ccc(N4CCNCC4)cn3)nc2n(C2CCCC2)c1=O [Palbociclib]; conditions: max 10 µM
Summary of the method: as §1

[3] = compound: CCN(CCO)CCCOc1ccc2c(Nc3cc(CC(=O)Nc4cccc(F)c4)[nH]n3)ncnc2c1 [AZD2811]; conditions: max 1 µM
Summary of the method: as §1

[4] = compound: CC1=C(C(=CC=C1)Cl)NC(=O)C2=CN=C(S2)NC3=CC(=NC(=N3)C)N4CCN(CC4)CCO [Dasatinib]; conditions: max 2 µM
Summary of the method: as §1

[5] = compound: Cc1c2c(nn1C)CSCc1cc(n(C)n1)CSc1cc(c3ccccc3c1)OCCCc1c(C(=O)O)n(C)c3c-2c(Cl)ccc13 [AZD5991]; conditions: max 1 µM
Summary of the method: as §1

[6] = compound: CCc1c2c(nc3ccc(O)cc13)-c1cc3c(c(=O)n1C2)COC(=O)[C@]3(O)CC [SN-38]; conditions: max 0.3 µM
Summary of the method: as §1

[7] = compound: C[C@@H](c1ccc2nccn2c1)n1nnc2ncc(-c3cnn(C)c3)nc21 [Savolitinib]; conditions: max 1 µM
Summary of the method: as §1

[8] = compound: CN(C)CCCOc1ccc(-c2ccc3ncc4c(c3c2)n(C2CCOCC2)c(=O)n4C)cn1 [AZD0156]; conditions: max 3 µM
Summary of the method: as §1

[9] = compound: COc1cccc2c1C(=O)c1c(O)c3c(c(O)c1C2=O)C[C@@](O)(C(=O)CO)C[C@@H]3O[C@H]1C[C@H](N)[C@H](O)[C@H](C)O1 [Doxorubicin]; conditions: max 1 µM
Summary of the method: as §1

[10] = compound: CN(CC[C@H](CSC1=CC=CC=C1)NC2=C(C=C(C=C2)S(=O)(=O)NC(=O)C3=CC=C(C=C3)N4CCC(CC4)[C@H](C5=CC=CC=C5C6=CC=C(C=C6)Cl)O)S(=O)(=O)C(F)(F)F)CCO [AZD4320]; conditions: max 1 µM
Summary of the method: as §1

[11] = compound: C[C@@H](Nc1cc(F)cc(F)c1)c1cc(C(=O)N(C)C)cc2c(=O)cc(N3CCOCC3)oc12 [AZD8186]; conditions: max 3 µM
Summary of the method: as §1

[12] = compound: Cc1cc2ncnn2cc1Nc1ncc2c(n1)n(C1CCOCC1)c(=O)n2C [AZD7648]; conditions: max 10 µM
Summary of the method: as §1

[13] = compound: CC(=O)Nc1cccc(-n2c(=O)n(C3CC3)c(=O)c3c(Nc4ccc(I)cc4F)n(C)c(=O)c(C)c32)c1 [Trametinib]; conditions: max 1 µM
Summary of the method: as §1

[14] = compound: COc1nnc2ccc(N3CCC(c4ccc(OCCN5CCN(C)C(=O)[C@H]5C)cc4)CC3)nn12 [AZD5153]; conditions: max 1 µM
Summary of the method: as §1

[15] = compound: C[C@@H](Oc1cc(-c2cnn(C3CCNCC3)c2)cnc1N)c1c(Cl)ccc(F)c1Cl [Crizotinib]; conditions: max 10 µM
Summary of the method: as §1

[16] = compound: COc1cccc(OCCCN)c1-c1cc(Nc2cnc(C#N)cn2)n[nH]1 [Prexasertib]; conditions: max 1 µM
Summary of the method: as §1

[17] = compound: CC(C)n1c(=O)n(C)c2cnc3cc(F)c(-c4ccc(OCCCN5CCCCC5)nc4)cc3c21 [AZD1390]; conditions: max 0.3 µM
Summary of the method: as §1

[18] = compound: CS(=O)(=O)CCNCc1ccc(-c2ccc3ncnc(Nc4ccc(OCc5cccc(F)c5)c(Cl)c4)c3c2)o1 [Lapatinib]; conditions: max 10 µM
Summary of the method: as §1

[19] = compound: CC1(C)CCC(CN2CCN(c3ccc(C(=O)NS(=O)(=O)c4ccc(NCC5CCOCC5)c([N+](=O)[O-])c4)c(Oc4cnc5[nH]ccc5c4)c3)CC2)=C(c2ccc(Cl)cc2)C1 [Venetoclax]; conditions: max 1 µM
Summary of the method: as §1

[20] = compound: O=C(c1cc(Cc2n[nH]c(=O)c3ccccc23)ccc1F)N1CCN(C(=O)C2CC2)CC1 [Olaparib]; conditions: max 10 µM
Summary of the method: as §1

[21] = compound: CC1=CN2[C@@H](C1)C=NC3=CC(=C(C=C3C2=O)OC)OCCCCCOC4=C(C=C5C(=C4)N=C[C@@H]6CC(=CN6C5=O)C)OC [SG3199]; conditions: max 0.001 µM
Summary of the method: as §1

[22] = compound: Cn1cnc2c(F)c(Nc3ccc(Br)cc3Cl)c(C(=O)NOCCO)cc21 [Selumetinib]; conditions: max 10 µM
Summary of the method: as §1

[23] = compound: C1CN(CCC1(C(=O)N[C@@H](CCO)C2=CC=C(C=C2)Cl)N)C3=NC=NC4=C3C=CN4 [Capivasertib]; conditions: max 10 µM
Summary of the method: as §1

[24] = compound: C[C@@H]1COCCN1C2=NC(=NC(=C2)C3(CC3)[S@](=N)(=O)C)C4=C5C=CNC5=NC=C4 [AZD6738]; conditions: max 10 µM
Summary of the method: as §1

[25] = compound: Cc1nc(-c2cn3c(n2)-c2ccc(-c4cnn(C(C)(C)C(N)=O)c4)cc2OCC3)n(C(C)C)n1 [Taselisib]; conditions: max 10 µM
Summary of the method: as §1

[26] = compound: C=CCn1c(=O)c2cnc(Nc3ccc(N4CCN(C)CC4)cc3)nc2n1-c1cccc(C(C)(C)O)n1 [AZD1775]; conditions: max 3 µM
Summary of the method: as §1

[27] = compound: COc1cc(Nc2ncc3c(n2)-c2ccc(Cl)cc2C(c2c(F)cccc2OC)=NC3)ccc1C(=O)O [Alisertib]; conditions: max 10 µM
Summary of the method: as §1

Cell Line | IC50, cell viability 72 h [1] | IC50, cell viability 72 h [2] | IC50, cell viability 72 h [3] | IC50, cell viability 72 h [4] | IC50, cell viability 72 h [5] | IC50, cell viability 72 h [6] | IC50, cell viability 72 h [7] | IC50, cell viability 72 h [8] | IC50, cell viability 72 h [9] | IC50, cell viability 72 h [10] | IC50, cell viability 72 h [11] | IC50, cell viability 72 h [12] | IC50, cell viability 72 h [13] | IC50, cell viability 72 h [14] | IC50, cell viability 72 h [15] | IC50, cell viability 72 h [16] | IC50, cell viability 72 h [17] | IC50, cell viability 72 h [18] | IC50, cell viability 72 h [19] | IC50, cell viability 72 h [20] | IC50, cell viability 72 h [21] | IC50, cell viability 72 h [22] | IC50, cell viability 72 h [23] | IC50, cell viability 72 h [24] | IC50, cell viability 72 h [25] | IC50, cell viability 72 h [26] | IC50, cell viability 72 h [27]
5637 (Bladder Carcinoma) | > 10 µM | > 10 µM | 251 nM | 260 nM | > 1000 nM | 37.9 nM | > 1000 nM | > 3000 nM | > 1000 nM | > 1000 nM | > 3000 nM | > 10 µM | > 1000 nM | 900 nM | > 10 µM | 53.2 nM | > 300 nM | 7.56 µM | > 1000 nM | > 10 µM | > 1 nM | > 10 µM | > 10 µM | 6.46 µM | 8.9 µM | 385 nM | 1010 nM
G-402 (Other Solid Carcinomas) | > 10 µM | > 10 µM | 475 nM | 319 nM | 251 nM | 27 nM | > 1000 nM | > 3000 nM | 123 nM | > 1000 nM | > 3000 nM | > 10 µM | 563 nM | 98.5 nM | 7.96 µM | 523 nM | > 300 nM | > 10 µM | > 1000 nM | > 10 µM | > 1 nM | > 10 µM | 8.69 µM | 7.01 µM | 2.42 µM | 2700 nM | 1970 nM
COLO-792 (Melanoma) | > 10 µM | > 10 µM | > 1000 nM | > 2000 nM | 238 nM | > 300 nM | > 1000 nM | > 3000 nM | > 1000 nM | 788 nM | > 3000 nM | > 10 µM | 110 nM | 512 nM | 5.38 µM | > 1000 nM | > 300 nM | > 10 µM | > 1000 nM | > 10 µM | > 1 nM | 5.94 µM | > 10 µM | > 10 µM | 1.69 µM | 2290 nM | > 10000 nM
EW-16 (Ewing's Sarcoma) | > 10 µM | > 10 µM | 837 nM | > 2000 nM | > 1000 nM | 3.19 nM | > 1000 nM | > 3000 nM | 71.9 nM | > 1000 nM | > 3000 nM | > 10 µM | > 1000 nM | > 1000 nM | > 10 µM | 726 nM | > 300 nM | > 10 µM | > 1000 nM | > 10 µM | > 1 nM | > 10 µM | > 10 µM | > 10 µM | 5.72 µM | 581 nM | 2280 nM

Reference: the supplement of paper PMC11061612
